Measured values as given in paper PMC10275482 (ACS Omega, 2023).
Where two headings read alike, the source gives them in different places.

Legend:
[1] = tested on: SARS-CoV-2; details: cited from earlier work; for EC50: read-out: EC50 in Vero cells
[2] = molecular target: SARS-Cov-2 PL^pro (Severe acute respiratory syndrome coronavirus 2, UniProt P0DTD1); experiment: biochemical
[3] = tested on: SARS-CoV-2 (isolate USA WA1/2020); experiment: microbe, parasite or virus in culture; assay type: cell-based; details: Severe acute respiratory syndrome coronavirus 2, Calu-3, 48 h, read-out: IC50 (infection)
[4] = tested on: Calu-3 cells
[5] = tested on: SARS-CoV-2; details: Vero cells, cited from earlier work
[6] = in vitro; details: human
[7] = tested on: SARS-CoV-2; details: cited from earlier work
[8] = tested on: SARS-CoV-2; details: read-out: A549-ACE2 IC50; A549-ACE2 cells; cited from earlier work
[9] = tested on: PL^pro; details: read-out: PL^pro IC50; cited from earlier work
[10] = molecular target: SARS-Cov-2 M^pro (Severe acute respiratory syndrome coronavirus 2, UniProt P0DTD1); experiment: biochemical

CC(C)(C)NC(=O)N[C@H](C(=O)N1C[C@H]2[C@@H]([C@H]1C(=O)NC(CC1CCC1)C(=O)C(N)=O)C2(C)C)C(C)(C)C (some centres unmarked) [boceprevir]
EC50 [1]: 1.31 µM

COc1cc(Nc2c(C#N)cnc3cc(OCCCN4CCN(C)CC4)c(OC)cc23)c(Cl)cc1Cl [bosutinib]
IC50 [2]: 4.23 ± 0.28 µM
IC50 [3]: 5.26 µM
cell toxicity in Calu-3 cells (in words) [4]: demonstrated cell toxicity
SI (anti-SARS-CoV-2 entry activity) [5]: 7.08
EC50 ([5]; read-out: anti-SARS-CoV-2 entry activity EC50): 2.45 µM
CC50 [6]: 6.06 µM

C[N+](C)(C)CCOP(=O)(O)OP(=O)([O-])OC[C@H]1O[C@@H](n2ccc(N)nc2=O)[C@H](O)[C@@H]1O [citicoline]
IC50 [2]: 1.35 ± 0.27 µM

C[C@@H](Oc1cc(-c2cnn(C3CCNCC3)c2)cnc1N)c1c(Cl)ccc(F)c1Cl [crizotinib]
IC50 [2]: 3.81 ± 0.04 µM
IC50 [3]: 16.3 µM
cell toxicity in Calu-3 cells (in words) [4]: demonstrated cell toxicity
CC50 [6]: 5.09 µM

COc1cc2ncnc(Nc3ccc(F)c(Cl)c3)c2cc1NC(=O)/C=C/CN1CCCCC1 [dacomitinib]
IC50 [2]: 3.33 ± 0.06 µM
IC50 ([7]; read-out: IC50 against SARS-CoV-2 in Calu-3 cells): 0.04 µM

OCCN(CCO)c1nc(N2CCCCC2)c2nc(N(CCO)CCO)nc(N3CCCCC3)c2n1 [dipyridamole]
EC50 [1]: ~0.1 µM

CCCCCc1c2c(cc(O)c1C(=O)O)OC(=O)c1c(cc(OC)cc1C(=O)CCCC)O2 [lobaric acid]
IC50 [2]: 10 ± 1.11 µM

C=CC(=O)Nc1cccc(Oc2nc(Nc3ccc(N4CCN(C)CC4)cc3)nc3ccsc23)c1 [olmutinib]
IC50 [2]: 0.54 ± 0.04 µM
IC50 [3]: 9.76 µM
cell toxicity in Calu-3 cells (in words) [4]: demonstrated cell toxicity
CC50 [6]: 12.5 µM

COc1ccc2nc3cc(Cl)ccc3c(Nc3cc(CN4CCCC4)c(O)c(CN4CCCC4)c3)c2n1 [pyronaridine tetraphosphate]
IC50 [8]: 0.23 µM
IC50 [9]: 1.8 µM

O=C(c1ccc(OCCN2CCCCC2)cc1)c1c(-c2ccc(O)cc2)sc2cc(O)ccc12 [raloxifene]
IC50 [2]: 3.28 ± 0.29 µM
IC50 ([1]; read-out: IC50 against SARS-CoV-2 in Vero cells): 3.9 µM
IC50 ([1]; read-out: IC50 in Vero, Vero cells): 5.9 µM
SI in Calu-3 cells [7]: 2.7
IC50 ([7]; read-out: IC50 in Calu-3 cells): 9 µM
IC50 [10]: 42.8 ± 6.7 µM

CC1(C)CCC2=C(O1)c1ccccc1C(=O)C2=O [β-lapachone]
IC50 [2]: 5.3 ± 0.29 µM
